Measurements published in PubChem BioAssay AID1259407 (Chemical Carcinogenesis Research Information System (CCRIS), 2018).
The source made the active and inactive calls. No rule for the calls is given here.

System: CCRIS mutagenicity, Ames/micronucleus/aberration tests
Experiment: CCRIS mutagenicity studies
[1] = Test System: AMES SALMONELLA TYPHIMURIUM, Strain/Indicator: TA98, Metabolic Activation: NONE, Method: STANDARD PLATE
[2] = Test System: AMES SALMONELLA TYPHIMURIUM, Strain/Indicator: TA100, Metabolic Activation: NONE, Method: STANDARD PLATE

## Nc1cccc2cc3ccccc3cc12
[1]
  mutagenic call: inactive; negative
Test System: AMES SALMONELLA TYPHIMURIUM, Strain/Indicator: TA98, Metabolic Activation: RAT LIVER, CYTOSOL, AROCLOR 1254, Method: STANDARD PLATE
  mutagenic call: inactive; negative
Test System: AMES SALMONELLA TYPHIMURIUM, Strain/Indicator: TA98, Metabolic Activation: RAT LIVER, MICROSOMES, AROCLOR 1254, Method: STANDARD PLATE
  mutagenic call: active; positive
Test System: AMES SALMONELLA TYPHIMURIUM, Strain/Indicator: TA98, Metabolic Activation: RAT, LIVER, S-9, AROCLOR 1254 (2 OR 4%), Method: STANDARD PLATE
  mutagenic call: active; positive
Test System: AMES SALMONELLA TYPHIMURIUM, Strain/Indicator: TA98, Metabolic Activation: RAT, LIVER, S-9, AROCLOR 1254, Method: STANDARD PLATE
  mutagenic call: active; positive
Test System: AMES SALMONELLA TYPHIMURIUM, Strain/Indicator: TA98, Metabolic Activation: RAT, LIVER, S-9, PHENOBARBITAL, Method: STANDARD PLATE
  mutagenic call: active; positive
[2]
  mutagenic call: inactive; negative
Test System: AMES SALMONELLA TYPHIMURIUM, Strain/Indicator: TA100, Metabolic Activation: RAT, LIVER, S-9, AROCLOR 1254 (2%), Method: STANDARD PLATE
  mutagenic call: inactive; negative
Test System: AMES SALMONELLA TYPHIMURIUM, Strain/Indicator: TA100, Metabolic Activation: RAT, LIVER, S-9, AROCLOR 1254, Method: STANDARD PLATE
  mutagenic call: active; positive
Test System: AMES SALMONELLA TYPHIMURIUM, Strain/Indicator: TA100, Metabolic Activation: RAT, LIVER, S-9, PHENOBARBITAL, Method: STANDARD PLATE
  mutagenic call: active; positive
Test System: AMES SALMONELLA TYPHIMURIUM, Strain/Indicator: TA1535, Metabolic Activation: RAT, LIVER, S-9, AROCLOR 1254 (2%), Method: STANDARD PLATE
  mutagenic call: active; positive
Test System: AMES SALMONELLA TYPHIMURIUM, Strain/Indicator: TA1537, Metabolic Activation: RAT, LIVER, S-9, AROCLOR 1254 (2%), Method: STANDARD PLATE
  mutagenic call: active; positive
Test System: MOUSE LYMPHOMA, Strain/Indicator: L5178Y (TK+/TK-), Metabolic Activation: RAT, LIVER, S-9, AROCLOR 1254, Method: SUSPENSION/PLATE
  mutagenic call: active; positive

## Cc1ccc2[nH]c3c(C)ccc(C)c3c2c1
[1]
  mutagenic call: inactive; negative
Test System: AMES SALMONELLA TYPHIMURIUM, Strain/Indicator: TA98, Metabolic Activation: RAT LIVER S-9, AROCLOR 1254, Method: STANDARD PLATE
  mutagenic call: active; positive
[2]
  mutagenic call: inactive; negative
Test System: AMES SALMONELLA TYPHIMURIUM, Strain/Indicator: TA100, Metabolic Activation: RAT LIVER S-9, AROCLOR 1254, Method: STANDARD PLATE
  mutagenic call: inactive; negative

## CC(=O)/C=C/c1ccco1
Test System: AMES SALMONELLA TYPHIMURIUM, Strain/Indicator: TA98, Metabolic Activation: HAMSTER, LIVER, S-9, AROCLOR 1254 (10%), Method: PREINCUBATION
  mutagenic call: inactive; negative
Test System: AMES SALMONELLA TYPHIMURIUM, Strain/Indicator: TA98, Metabolic Activation: NONE, Method: PREINCUBATION
  mutagenic call: inactive; negative
Test System: AMES SALMONELLA TYPHIMURIUM, Strain/Indicator: TA98, Metabolic Activation: RAT, LIVER, S-9, AROCLOR 1254 (10%), Method: PREINCUBATION
  mutagenic call: inactive; negative
Test System: AMES SALMONELLA TYPHIMURIUM, Strain/Indicator: TA100, Metabolic Activation: HAMSTER, LIVER, S-9, AROCLOR 1254 (10%), Method: PREINCUBATION
  mutagenic call: inactive; negative
Test System: AMES SALMONELLA TYPHIMURIUM, Strain/Indicator: TA100, Metabolic Activation: NONE, Method: PREINCUBATION
  mutagenic call: inactive; negative
Test System: AMES SALMONELLA TYPHIMURIUM, Strain/Indicator: TA100, Metabolic Activation: RAT, LIVER, S-9, AROCLOR 1254 (10%), Method: PREINCUBATION
  mutagenic call: inactive; negative
Test System: AMES SALMONELLA TYPHIMURIUM, Strain/Indicator: TA1535, Metabolic Activation: HAMSTER, LIVER, S-9, AROCLOR 1254 (10%), Method: PREINCUBATION
  mutagenic call: inactive; negative
Test System: AMES SALMONELLA TYPHIMURIUM, Strain/Indicator: TA1535, Metabolic Activation: NONE, Method: PREINCUBATION
  mutagenic call: inactive; negative
Test System: AMES SALMONELLA TYPHIMURIUM, Strain/Indicator: TA1535, Metabolic Activation: RAT, LIVER, S-9, AROCLOR 1254 (10%), Method: PREINCUBATION
  mutagenic call: inactive; negative
Test System: AMES SALMONELLA TYPHIMURIUM, Strain/Indicator: TA1537, Metabolic Activation: HAMSTER, LIVER, S-9, AROCLOR 1254 (10%), Method: PREINCUBATION
  mutagenic call: inactive; negative
Test System: AMES SALMONELLA TYPHIMURIUM, Strain/Indicator: TA1537, Metabolic Activation: NONE, Method: PREINCUBATION
  mutagenic call: inactive; negative
Test System: AMES SALMONELLA TYPHIMURIUM, Strain/Indicator: TA1537, Metabolic Activation: RAT, LIVER, S-9, AROCLOR 1254 (10%), Method: PREINCUBATION
  mutagenic call: inactive; negative
